In US12195439B1, “C1-substituted isopropylamine fused heterocyclic mescaline derivatives” (Enveric Biosciences Canada Inc., priority 2022, dated 2025):
Where two headings read alike, the source gives them in different places.

What was measured:
[1] = biological target: T1, serotonin transporter (SERT) (Homo sapiens, UniProt P31645); experiment: biochemical; assay type: binding; details: for SERT, percent of control-specific binding: 10 µM; for inhibition at 10 µM: read-out: SERT, percent of control-specific binding
T1 construct: host or cells: CHO cells (membrane preparation)

[2] = biological target: T2, 5-HT2C receptor (Homo sapiens, UniProt P28335); experiment: Eurofins Cerep competition binding assay at 5-HT2C receptor; details: 10 μM test ligand, [125I](±)DOI, recombinant receptor from HEK-293 cells; for inhibition at 10 µM: read-out: HT2C, percent of control-specific binding
T2 construct: host or cells: HEK-293 cells (membrane preparation)
T2 sequence (P28335 33-458): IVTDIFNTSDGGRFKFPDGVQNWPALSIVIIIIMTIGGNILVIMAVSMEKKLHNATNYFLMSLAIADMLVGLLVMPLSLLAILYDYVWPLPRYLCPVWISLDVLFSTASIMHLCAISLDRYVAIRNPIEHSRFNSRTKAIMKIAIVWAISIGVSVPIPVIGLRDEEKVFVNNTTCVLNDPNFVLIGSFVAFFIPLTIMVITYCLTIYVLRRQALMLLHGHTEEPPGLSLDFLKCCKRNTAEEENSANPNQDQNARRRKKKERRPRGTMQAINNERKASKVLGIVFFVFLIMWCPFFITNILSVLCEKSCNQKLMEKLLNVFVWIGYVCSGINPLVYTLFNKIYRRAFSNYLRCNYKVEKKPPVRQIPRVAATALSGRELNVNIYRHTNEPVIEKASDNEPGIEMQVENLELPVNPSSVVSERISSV

[3] = biological target: T3, 5-HT2B receptor (Homo sapiens, UniProt P41595); experiment: Eurofins Cerep competition binding assay at 5-HT2B receptor; details: 10 μM test ligand, [3H]mesulergine, recombinant receptor from CHO cells; for inhibition at 10 µM: read-out: HT2B, percent of control-specific binding
T3 construct: host or cells: CHO cells (membrane preparation)

[4] = biological target: T4, dopamine transporter (DAT) (Homo sapiens, UniProt Q01959); experiment: Eurofins Cerep competition binding assay at dopamine transporter; details: for DAT, percent of control-specific binding: 10 μM test ligand, [3H]BTCP, recombinant transporter from CHO cells; for inhibition at 10 µM: read-out: DAT, percent of control-specific binding, 10 μM test ligand, [3H]BTCP, recombinant transporter from CHO cells
T4 construct: host or cells: CHO cells (membrane preparation)

[5] = biological target: T5, norepinephrine transporter (NET) (Homo sapiens, UniProt P23975); experiment: Eurofins Cerep competition binding assay at norepinephrine transporter; details: for NET, percent of control-specific binding: 10 μM test ligand, [3H]nisoxetine, recombinant transporter from CHO cells; for inhibition at 10 µM: read-out: NET, percent of control-specific binding, 10 μM test ligand, [3H]nisoxetine, recombinant transporter from CHO cells
T5 construct: host or cells: CHO cells (membrane preparation)

[6] = biological target: T6, alpha2A receptor (Homo sapiens, UniProt P08913); experiment: Eurofins Cerep competition binding assay at alpha2A receptor; details: 10 μM test ligand, [3H]RX 821002, recombinant receptor from CHO cells; for inhibition at 10 µM: read-out: α-2A, percent of control-specific binding
T6 construct: host or cells: CHO cells (membrane preparation)
T6 sequence (P08913 1-465): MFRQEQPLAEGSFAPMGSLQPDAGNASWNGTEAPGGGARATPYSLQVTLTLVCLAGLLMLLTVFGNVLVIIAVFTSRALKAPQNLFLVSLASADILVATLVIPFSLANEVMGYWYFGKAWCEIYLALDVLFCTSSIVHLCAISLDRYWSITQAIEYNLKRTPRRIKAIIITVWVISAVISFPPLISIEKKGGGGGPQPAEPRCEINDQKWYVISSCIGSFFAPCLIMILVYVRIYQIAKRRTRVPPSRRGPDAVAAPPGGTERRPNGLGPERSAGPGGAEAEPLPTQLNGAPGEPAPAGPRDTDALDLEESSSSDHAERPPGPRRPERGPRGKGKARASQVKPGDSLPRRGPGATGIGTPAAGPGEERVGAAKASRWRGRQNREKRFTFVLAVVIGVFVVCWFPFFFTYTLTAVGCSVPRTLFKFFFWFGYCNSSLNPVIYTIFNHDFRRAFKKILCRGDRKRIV

[7] = biological target: T7, 5-HT7 receptor (Homo sapiens, UniProt P34969); experiment: Eurofins Cerep competition binding assay at 5-HT7 receptor; details: 10 μM test ligand, [3H]LSD, recombinant receptor from HEK-293 cells; for inhibition at 10 µM: read-out: HT7, percent of control-specific binding
T7 construct: host or cells: HEK-293 cells (membrane preparation)

[8] = biological target: T8, 5-HT1A receptor (Homo sapiens, UniProt P08908); experiment: 5-HT1A receptor functional cellular response (cAMP) assay; assay type: cell-based
T8 construct: purchased Perkin Elmer 6110501400UA
T8 sequence (P08908 1-422): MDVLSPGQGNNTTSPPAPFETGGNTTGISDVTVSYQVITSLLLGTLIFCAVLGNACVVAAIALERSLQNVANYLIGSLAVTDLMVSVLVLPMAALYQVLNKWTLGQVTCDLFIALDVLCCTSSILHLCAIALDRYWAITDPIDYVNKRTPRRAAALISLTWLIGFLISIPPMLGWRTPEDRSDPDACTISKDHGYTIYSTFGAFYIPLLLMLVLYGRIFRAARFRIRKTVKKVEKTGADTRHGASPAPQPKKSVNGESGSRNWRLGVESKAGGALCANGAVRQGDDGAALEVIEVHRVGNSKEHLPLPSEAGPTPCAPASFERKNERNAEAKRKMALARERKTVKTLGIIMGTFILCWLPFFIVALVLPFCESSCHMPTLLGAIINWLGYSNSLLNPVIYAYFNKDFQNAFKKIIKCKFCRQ

[9] = biological target: T8, 5-HT1A receptor; experiment: Eurofins Cerep competition binding assay at 5-HT1A receptor; details: 10 μM test ligand, [3H]8-OH-DPAT, recombinant receptor from HEK-293 cells; for inhibition at 10 µM: read-out: HT1A, percent of control-specific binding
[10] = biological target: T9, MT1 receptor (Homo sapiens, UniProt P48039); experiment: Eurofins Cerep competition binding assay at MT1 receptor; details: for MT1, percent of control-specific binding: 10 μM test ligand, [125I]2-iodomelatonin, recombinant receptor from CHO cells; for inhibition at 10 µM: read-out: MT1, percent of control-specific binding, 10 μM test ligand, [125I]2-iodomelatonin, recombinant receptor from CHO cells
T9 construct: host or cells: CHO cells (membrane preparation)

[11] = biological target: T8, 5-HT1A receptor; experiment: 5-HT1A receptor radioligand competition assay (SPA); assay type: binding; details: competition with 0.5 nM [3H]8-hydroxy-DPAT, membranes containing 5-HT1A
[12] = biological target: T10, 5-HT2A receptor (Homo sapiens, UniProt P28223); experiment: biochemical; assay type: binding; details: competition with 1 nM [3H]ketanserin, membranes containing 5-HT2A, SPA
T10 construct: purchased PerkinElmer ES-313-M400UA

[13] = CHO-K1/5-HT1A/Gα15 cells stimulated with 4 μM forskolin, reduction of intracellular cAMP, read-out: 5-HT1A, EC50

T10 sequence (P28223 whole entry): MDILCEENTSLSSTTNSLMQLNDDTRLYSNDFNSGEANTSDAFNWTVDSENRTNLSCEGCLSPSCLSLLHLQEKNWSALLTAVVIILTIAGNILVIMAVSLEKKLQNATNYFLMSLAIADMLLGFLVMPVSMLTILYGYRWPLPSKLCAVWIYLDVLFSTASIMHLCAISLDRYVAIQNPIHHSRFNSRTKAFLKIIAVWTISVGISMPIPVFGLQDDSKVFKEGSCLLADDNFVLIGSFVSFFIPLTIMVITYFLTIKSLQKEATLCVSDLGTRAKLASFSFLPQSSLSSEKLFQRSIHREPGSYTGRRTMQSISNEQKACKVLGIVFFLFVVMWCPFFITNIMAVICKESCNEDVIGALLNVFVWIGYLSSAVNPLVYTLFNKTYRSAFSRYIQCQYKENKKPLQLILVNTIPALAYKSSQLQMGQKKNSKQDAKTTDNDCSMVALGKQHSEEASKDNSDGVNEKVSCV
T7 sequence (P34969 whole entry): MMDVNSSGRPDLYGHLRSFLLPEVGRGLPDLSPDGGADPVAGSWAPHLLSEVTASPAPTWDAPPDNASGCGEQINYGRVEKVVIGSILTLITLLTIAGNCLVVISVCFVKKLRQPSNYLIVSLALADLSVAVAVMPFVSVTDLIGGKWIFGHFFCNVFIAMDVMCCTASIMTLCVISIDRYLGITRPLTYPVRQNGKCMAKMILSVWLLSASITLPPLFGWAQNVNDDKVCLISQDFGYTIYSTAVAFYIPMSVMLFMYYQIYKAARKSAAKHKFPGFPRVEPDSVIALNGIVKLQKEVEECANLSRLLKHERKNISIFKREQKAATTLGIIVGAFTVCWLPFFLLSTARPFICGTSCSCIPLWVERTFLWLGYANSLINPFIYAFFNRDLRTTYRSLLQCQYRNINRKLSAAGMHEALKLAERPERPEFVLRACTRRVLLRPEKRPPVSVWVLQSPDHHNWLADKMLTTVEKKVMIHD
T1 sequence (P31645 whole entry): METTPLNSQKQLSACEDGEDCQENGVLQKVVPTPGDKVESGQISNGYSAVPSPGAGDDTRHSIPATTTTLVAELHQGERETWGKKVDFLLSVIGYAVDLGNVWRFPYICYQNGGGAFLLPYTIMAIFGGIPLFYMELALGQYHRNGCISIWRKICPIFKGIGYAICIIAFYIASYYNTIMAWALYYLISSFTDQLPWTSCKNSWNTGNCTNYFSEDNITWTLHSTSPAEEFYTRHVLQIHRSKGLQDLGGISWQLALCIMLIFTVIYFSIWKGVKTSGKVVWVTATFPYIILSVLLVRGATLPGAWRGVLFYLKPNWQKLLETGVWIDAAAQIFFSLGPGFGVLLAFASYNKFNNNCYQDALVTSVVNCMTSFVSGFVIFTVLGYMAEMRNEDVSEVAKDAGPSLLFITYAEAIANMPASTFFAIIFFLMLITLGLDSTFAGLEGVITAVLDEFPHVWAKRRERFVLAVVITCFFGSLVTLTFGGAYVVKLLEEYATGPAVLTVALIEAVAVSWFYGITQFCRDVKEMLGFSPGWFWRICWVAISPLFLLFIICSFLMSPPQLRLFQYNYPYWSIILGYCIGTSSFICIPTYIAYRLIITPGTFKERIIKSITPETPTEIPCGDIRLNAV
T4 sequence (Q01959 whole entry): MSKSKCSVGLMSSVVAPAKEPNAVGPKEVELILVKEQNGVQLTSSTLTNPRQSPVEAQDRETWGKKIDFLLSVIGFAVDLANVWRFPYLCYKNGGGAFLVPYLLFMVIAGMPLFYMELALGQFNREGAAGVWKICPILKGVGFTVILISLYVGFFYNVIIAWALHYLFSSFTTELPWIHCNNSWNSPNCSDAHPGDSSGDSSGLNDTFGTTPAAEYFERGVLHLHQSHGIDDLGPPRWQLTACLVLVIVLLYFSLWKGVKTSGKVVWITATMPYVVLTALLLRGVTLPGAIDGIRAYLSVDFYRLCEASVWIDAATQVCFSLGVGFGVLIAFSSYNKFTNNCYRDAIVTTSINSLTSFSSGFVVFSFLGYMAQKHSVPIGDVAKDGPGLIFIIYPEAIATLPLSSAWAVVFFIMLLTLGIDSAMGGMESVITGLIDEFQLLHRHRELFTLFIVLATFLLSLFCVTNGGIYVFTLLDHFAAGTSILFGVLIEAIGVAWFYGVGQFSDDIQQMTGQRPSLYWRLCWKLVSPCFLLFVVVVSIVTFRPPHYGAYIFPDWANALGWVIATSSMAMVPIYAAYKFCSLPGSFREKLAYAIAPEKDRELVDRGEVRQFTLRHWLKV
T5 sequence (P23975 whole entry): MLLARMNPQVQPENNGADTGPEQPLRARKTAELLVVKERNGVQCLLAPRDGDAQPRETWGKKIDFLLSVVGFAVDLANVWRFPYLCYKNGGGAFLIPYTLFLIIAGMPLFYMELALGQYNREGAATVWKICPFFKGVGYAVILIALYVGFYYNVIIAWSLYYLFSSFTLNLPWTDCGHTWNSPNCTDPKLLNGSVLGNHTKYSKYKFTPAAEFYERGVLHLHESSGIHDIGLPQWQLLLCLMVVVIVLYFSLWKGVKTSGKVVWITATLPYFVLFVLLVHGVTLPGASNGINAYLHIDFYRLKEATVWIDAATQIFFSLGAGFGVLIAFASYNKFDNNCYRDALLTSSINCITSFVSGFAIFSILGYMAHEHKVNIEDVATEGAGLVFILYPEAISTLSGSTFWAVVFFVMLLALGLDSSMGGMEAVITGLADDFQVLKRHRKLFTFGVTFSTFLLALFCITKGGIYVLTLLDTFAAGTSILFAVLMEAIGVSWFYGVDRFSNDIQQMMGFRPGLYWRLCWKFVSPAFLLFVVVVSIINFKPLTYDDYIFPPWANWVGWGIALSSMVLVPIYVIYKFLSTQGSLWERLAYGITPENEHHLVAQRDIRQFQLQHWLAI
T3 sequence (P41595 whole entry): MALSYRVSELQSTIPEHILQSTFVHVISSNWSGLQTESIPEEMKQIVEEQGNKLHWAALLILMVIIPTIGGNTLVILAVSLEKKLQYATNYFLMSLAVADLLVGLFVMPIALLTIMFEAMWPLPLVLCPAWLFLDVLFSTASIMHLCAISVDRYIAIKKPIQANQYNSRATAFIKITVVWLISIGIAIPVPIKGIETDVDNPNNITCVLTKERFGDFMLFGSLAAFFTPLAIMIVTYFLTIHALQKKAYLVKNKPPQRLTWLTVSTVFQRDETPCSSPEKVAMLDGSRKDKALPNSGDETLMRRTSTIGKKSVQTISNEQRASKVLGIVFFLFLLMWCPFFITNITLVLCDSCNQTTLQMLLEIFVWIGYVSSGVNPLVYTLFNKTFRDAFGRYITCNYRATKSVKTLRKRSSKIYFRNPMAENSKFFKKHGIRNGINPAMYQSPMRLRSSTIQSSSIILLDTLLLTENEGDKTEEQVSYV
T9 sequence (P48039 whole entry): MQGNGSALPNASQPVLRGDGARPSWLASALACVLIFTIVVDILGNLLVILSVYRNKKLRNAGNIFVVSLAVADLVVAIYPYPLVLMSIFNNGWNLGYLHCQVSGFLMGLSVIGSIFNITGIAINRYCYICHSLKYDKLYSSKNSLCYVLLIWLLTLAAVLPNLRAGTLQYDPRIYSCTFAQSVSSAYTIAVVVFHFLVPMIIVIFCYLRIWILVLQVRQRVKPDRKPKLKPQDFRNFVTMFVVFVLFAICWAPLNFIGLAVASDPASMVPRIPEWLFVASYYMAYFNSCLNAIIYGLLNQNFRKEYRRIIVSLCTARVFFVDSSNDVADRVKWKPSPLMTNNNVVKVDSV

Row | Structure (SMILES) | Ki ([11]; 5-HT1A, Ki) | inhibition at 10 µM [1] | inhibition at 10 µM [2] | inhibition at 10 µM [3] | inhibition at 10 µM [4] | inhibition at 10 µM [5] | inhibition at 10 µM [6] | inhibition at 10 µM [7] | EC50 [8] | inhibition at 10 µM [9] | inhibition at 10 µM [10] | also measured
1 | CNC(C)Cc1ccc2c(c1)OCO2 (stereo not drawn) [MDMA] |  |  |  |  |  |  |  |  |  |  |  | SERT, percent of control-specific binding [1]: 46%; HT2C, percent of control-specific binding [2]: 96%; HT2B, percent of control-specific binding [3]: 85%; DAT, percent of control-specific binding [4]: 28%; NET, percent of control-specific binding [5]: 3%; α-2A, percent of control-specific binding [6]: 27%; HT7, percent of control-specific binding [7]: 58%; EC50 [8, 13]: > 1000 µM; HT1A, percent of control-specific binding [9]: 68%; MT1, percent of control-specific binding [10]: 1%
2 | CC(C(O)c1ccc2c(c1)OCO2)N(C)Cc1ccccc1 (single isomer, unassigned) [B(III) as diast. (iv)] | 16.9 µM |  |  |  |  |  |  |  |  |  |  | SERT, percent of control-specific binding [1]: 44%; HT2C, percent of control-specific binding ([2]; 10 µM): 14%; HT2B, percent of control-specific binding ([3]; 10 µM): 28%; DAT, percent of control-specific binding ([4]; 10 µM): 76%; NET, percent of control-specific binding ([5]; 10 µM): 25%; α-2A, percent of control-specific binding ([6]; 10 µM): 42%; HT7, percent of control-specific binding ([7]; 10 µM): 23%; HT1A, percent of control-specific binding ([9]; 10 µM): 22%; MT1, percent of control-specific binding ([10]; 10 µM): 15%
3 | COc1cc(CCN)c(OC)cc1Br [2C-B] |  |  |  |  |  |  |  |  |  |  |  | SERT, percent of control-specific binding [1]: 42%; HT2B, percent of control-specific binding [3]: 99%; DAT, percent of control-specific binding [4]: 5%; NET, percent of control-specific binding [5]: 13%; α-2A, percent of control-specific binding [6]: 88%; HT7, percent of control-specific binding [7]: 88%; EC50 [8, 13]: 5.95 µM; HT1A, percent of control-specific binding [9]: 96%; MT1, percent of control-specific binding [10]: 86%
4 | CC(C(F)c1ccc2c(c1)OCO2)N(C)Cc1ccccc1 (single isomer, unassigned) [D(III) as diast. (vii)] | 11.3 µM | 35% | 36% | 29% | 69% | 50% | 86% | 60% | 156 µM | 36% | 23% | 
5 | CC(C(O)c1ccc2c(c1)OCO2)N(C)Cc1ccccc1 (single isomer, unassigned) [B(III) as diast. (iii)] | 110 µM | 58% |  |  | 75% | 42% |  |  |  |  |  | HT2C, percent of control-specific binding ([2]; 10 µM): 5%; HT2B, percent of control-specific binding ([3]; 10 µM): 3%; Ki [12]: 44 µM; α-2A, percent of control-specific binding ([6]; 10 µM): 7%; HT7, percent of control-specific binding ([7]; 10 µM): 10%; HT1A, percent of control-specific binding ([9]; 10 µM): 0%; MT1, percent of control-specific binding ([10]; 10 µM): 0%
6 | CCCOc1c(OC)cc(CCN)cc1OC [proscaline] | 9.4 µM | 23% | 97% | 85% | -2% | -9% | 40% | 5% |  | 71% | 3% | Ki [12]: 82 µM
7 | C[C@@H]([C@H](F)c1ccc2c(c1)OCO2)N(C)Cc1ccccc1 [D(III) as diast. (vii)] | 11.3 µM |  |  |  |  |  |  |  | 156 µM |  |  | 
8 | COc1cc(CCN)cc(OC)c1OC [mescaline, 3,4,5 trimethoxyphenethylamine] | 8.5 µM | -6% | 95% | 80% | -1% | -9% | 57% | 38% | > 1000 µM | 65% | 6% | 
9 | CC(C(F)c1ccc2c(c1)OCO2)N1CCCC1 (stereo not drawn) [D(I) as diast. (v)] |  |  |  |  |  |  |  |  | > 1000 µM |  |  | 
10 | N[C@@H](Cc1c[nH]c2ccccc12)C(=O)O [tryptophan] | > 1000 µM | 1% | 25% | 0% | 1% | 1% | -4% | 11% |  | 6% | -2% | Ki [12]: > 1000 µM
11 | CNC(C)C(F)c1ccc2c(c1)OCO2 (single isomer, unassigned) [D(II) as diast. (vi)] | 6 µM |  |  |  |  |  |  |  | > 1000 µM |  |  | 
12 | CC(C(=O)c1ccc2c(c1)OCO2)N1CCCC1 (racemic) [A(I)] | 2 µM | 25% | 45% | 19% | 95% | 59% | 24% | 3% |  | 73% | 5% | Ki [12]: 131 µM
13 | CCOc1c(OC)cc(CCN)cc1OC [escaline] |  |  |  |  |  |  |  |  |  |  |  | Ki ([11]; read-out: 5-HT1A, Ki): 12.4 µM; SERT, percent of control-specific binding [1]: 0%; HT2C, percent of control-specific binding [2]: 95%; HT2B, percent of control-specific binding [3]: 81%; DAT, percent of control-specific binding [4]: 0%; NET, percent of control-specific binding [5]: 6%; α-2A, percent of control-specific binding [6]: 45%; HT7, percent of control-specific binding [7]: 16%; HT1A, percent of control-specific binding [9]: 44%; MT1, percent of control-specific binding [10]: 0%
14 | CN(C)CCc1c[nH]c2cccc(O)c12 [psilocin] |  |  |  |  |  |  |  |  | 0.957 µM |  |  | 
